Consider 1 molecule from publication PMC2724550, “Citrus auraptene suppresses cyclin D1 and significantly delays N-methyl nitrosourea induced mammary carcinogenesis in female Sprague-Dawley rats” (BMC Cancer, 2009).

Experiment [1] concerns eukaryotic Initiation Factor 4E (eIF4E). The experiment in a line: Western blot of eIF4E expression in rat mammary tumors. The conditions noted are these: dietary auraptene, data not shown. It is filed as in vivo, female Sprague-Dawley rats. As for the experimental part:
(§1) The mammary tumors from the female Sprague-Dawley rats were analyzed for cyclin D1 expression and eukaryotic Initiation Factor 4E (eIF4E) as previously described. Briefly, samples were first homogenized in RIPA buffer [50 mM Tris-HCL (pH 7.4), 1% Triton-X, 150 mM NaCl, 1 mM EDTA, 1 mM sodium orthovanadate, 1 mM PMSF, 1 μg of aprotinin, leupeptin and pepstatin and 1 mM sodium fluoride]. The proteins were measured by Bradford method (using BSA as a standard), followed by the addition of 2 × sample buffer [0.125 M Tris, 10% (w/v) SDS, 40% (v/v) glycerol, 0.04% (w/v) bromophenol blue, and 80 mM dithiothreitol]. Samples were heated to 95°C for 5 min, and 10 μg of protein/well was loaded and resolved. The proteins were then transferred and detected for cyclin D1 expression as mentioned above. Lysate from MCF-7 cells treated with IGF-1 was used as positive control for cyclin D1.
For orientation: Immunoblotting shows a protein as a band on a membrane.

Experiment [2] concerns cyclin D1. In words: Western blot of cyclin D1 expression in rat mammary tumors. It counts as in vivo, female Sprague-Dawley rats. Conditions: 500 ppm in diet, compared to MNU only group, n = 10 per group. The procedure:
as §1
Figure 5 Effects of dietary auraptene on cyclin D1 expression in rat mammary tumors. From the same tumor study, rat mammary tumors were homogenized and the lysates were used for western blot to analyze the cyclin D1 expression. […] (+ statistically different from MNU group, * statistically different from Auraptene 200 group, p < 0.05, One-way ANOVA, Tukey test).

Experiment [3] has as its system MDA-MB-231 cells. In words: MDA-MB-231 cell proliferation assay (MTT). It is filed as cell-based, human. The procedure:
The human breast carcinoma cell line MDA-MB-231 was obtained from ATCC (Manassas, VA) and grown in a sterile humidified environment at 37°C and 5% CO2: 95% air with complete DMEM media. The proliferation study was done by MTT assay which uses a tetrazolium compound [3-(4, 5-dimethylthiazol-2-yl)-2,5-diphenyltetrazolium bromide; MTT], which is converted into a formazan product by living cells. The MDA-MB-231 cells were plated in a 96 well plate at 12,500 cells/well at a confluency of 40%. The serum containing media was replaced with serum free media 5 hrs before treatment. The cells were then treated with auraptene at 1 – 50 μM auraptene in DMSO (0.1%, v/v). The control cells received vehicle only (DMSO, 0.1% v/v). After 24 hrs of treatment the cells were treated with MTT for 2 h and the absorbance was measured at 540 nm.
Figure 2 Effects of auraptene on human breast carcinoma cells. (A) Effects of auraptene on MDA-MB-231 cell proliferation. Cells were serum starved for 5 h and then treated with 1–50 μM auraptene in […]. Cell proliferation was assessed using the MTT reagent. Figures represent % vehicle control (means ± S.E.) # Replicates = 2 plates at 6 wells each for the treatment groups and 12 wells for the control group (* statistically different from control group, p < 0.05, One-way ANOVA, Tukey test). (B) Effects of auraptene on MCF-7 cell proliferation. Cells were serum starved for 24 h. At 22 h after serum starvation the cells were treated with 1–50 μM auraptene in […]. At 24 h serum starvation, the cells were treated with IGF-1 (10 ng/mL). Cell proliferation was assessed using the MTS reagent. Figures represent % vehicle control (mean± S.E.) # Replicates = 2 plates at 6 wells each for the treatment groups. (* statistically different from IGF-1 group, p < 0.05, One-way ANOVA, Tukey test). (C) Effects of auraptene on IGF-1 induced cyclin D1 expression. MCF-7 cells were serum starved for 24 h. At 22 h after serum starvation the cells were treated with10 μM auraptene in […]. At 24 h serum starvation the cells were treated with IGF-1 (10 ng/mL). The cells were harvested at the 15, 30 minutes and at 1 h, 2 h, 4 h, 8 h and 24 h. The cell lysates were probed for cyclin D1. […] The lower band (36 KD) is cyclin D1 and the upper band is β-actin (43 KD).

The subject of experiment [4] is cyclin D1. The experiment in a line: Western blot of IGF-1 induced cyclin D1 expression in MCF-7 cells. Conditions: 10 μM auraptene, 2 h pretreatment, 8 h after IGF-1, MCF-7 cells. It is filed as cell-based, human. The procedure: To study the effect of auraptene on the expression on cyclin D1, MCF-7 cells were plated in eight 12-well plates at 1.5 × 10^4 cells/well. The cells were incubated at 37°C till the next day in media with serum. The cells were serum starved for synchronization in serum free media for the next 24 h. At 22 h of serum starvation, the cells except in DMSO only and IGF-1 only groups, were treated with 10 μM auraptene in DMSO. At 24 h of serum starvation, the cells except in DMSO group were treated with 10 ng/mL of IGF-1. The cells were harvested at 5,15 and 30 minutes and at 1 h, 2 h, 4 h, 8 h and 24 h after IGF-1 treatment by directly adding boiling Laemmeli buffer. The cyclin D1 expression was then analyzed by western blot. In short, equal volumes (15 μL) of the sample in Laemmeli buffer was loaded into each well and resolved. The separated proteins were then electroblotted on a 0.45 μm pore size PVDF membrane (Immobilon-P, Millipore, Billerica, MA). After the protein transfer the membrane was placed in Millipore SNAP id Protein Detection System. […] The band intensity was evaluated using the Image-J software. […]
Figure 2 Effects of auraptene on human breast carcinoma cells. […] Cell proliferation was assessed using the MTT reagent. […] Cell proliferation was assessed using the MTS reagent. […]

SMILES strings stand for the structures.

`CC(C)=CCC/C(C)=C/COc1ccc2ccc(=O)oc2c1` [auraptene]: the “eIF4E protein expression in rat mammary tumors” value in experiment [1] is on record as “no significant change”. Moreover, in experiment [2], the “reduction of cyclin D1 expression in rat mammary tumors” value was found to be 49%. For the same molecule, the “reduction in MDA-MB-231 cell proliferation” value in experiment [3] (10 μM auraptene, 24 hrs, MTT) was “about 23%”. In addition, the “suppression of MDA-MB-231 cell proliferation” value is on record as 85% in experiment [3] (25 μM auraptene, 24 hrs, MTT) and “did not achieve any higher suppression of cell proliferation” in experiment [3] (50 μM auraptene compared with 25 μM). Moreover, the IC50 in experiment [3] (Homo sapiens, MDA-MB-231, 24 hrs treatment, serum free media, MTT, read-out: concentration suppressing MDA-MB-231 cell proliferation by 50%) came to 12 µM. The “IGF-1 induced cyclin D1 expression” value in experiment [4] is given as “nearly a total loss of IGF-1 induced cyclin D1 expression”.
